Tests used:
Test in all cases: Test F pre-/postemergence plant response
Type in all cases: in vivo
Details in all cases: scale 0 to 100
[1] = test system: arrowleaf sida (Sida rhombifolia)
Summary of the method: (§1)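 Seeds were sown in silt loam and sprayed preemergence; in parallel, plants at 2–18 cm (1- to 4-leaf) received postemergence sprays. Test chemicals were in a non-phytotoxic solvent with surfactant. After 14–21 days in the greenhouse, injury was rated visually against controls on a 0–100 scale (100 = complete control).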

[2] = test system: waterhemp (common waterhemp, Amaranthus rudis)
Summary of the method: as §1

[3] = test system: field bindweed (Convolvulus arvensis)
Summary of the method: as §1

[4] = test system: sandbur (southern sandbur, Cenchrus echinatus)
Summary of the method: as §1

[5] = test system: dayflower (Virginia (VA) dayflower, Commelina virginica)
Summary of the method: as §1

[6] = test system: hairy beggarticks (Bidens pilosa)
Summary of the method: as §1

[7] = test system: velvetleaf (Abutilon theophrasti)
Summary of the method: as §1

[8] = test system: yellow nutsedge (Cyperus esculentus)
Summary of the method: as §1

[9] = test system: wild poinsettia (Euphorbia heterophylla)
Summary of the method: as §1

soybean (Glycine max) = test system: soybean (Glycine max)
Summary of the method: as §1

[10] = test system: goosegrass (Eleusine indica)
Summary of the method: as §1

[11] = test system: surinam grass (Brachiaria decumbens)
Summary of the method: as §1

[12] = test system: johnsongrass (Sorghum halepense)
Summary of the method: as §1

[13] = test system: barnyardgrass (Echinochloa crus-galli)
Summary of the method: as §1

[14] = test system: giant foxtail (Setaria faberii)
Summary of the method: as §1

[15] = test system: large (Lg) crabgrass (Digitaria sanguinalis)
Summary of the method: as §1

CC(F)(F)c1cc(-c2ccccc2Oc2ncc(Br)cn2)no1 [Compound 149]
Plant response rating, Arrowleaf Sida ([1]; 16 g ai/ha Postemergence): 75 | Plant response rating, Arrowleaf Sida ([1]; 16 g ai/ha Preemergence): 0 | Plant response rating, Arrowleaf Sida ([1]; 31 g ai/ha Postemergence): 85 | Plant response rating, Arrowleaf Sida ([1]; 31 g ai/ha Preemergence): 35 | Plant response rating, Arrowleaf Sida ([1]; 62 g ai/ha Postemergence): 95 | Plant response rating, Arrowleaf Sida ([1]; 62 g ai/ha Preemergence): 65 | Plant response rating, Arrowleaf Sida ([1]; 125 g ai/ha Postemergence): 98 | Plant response rating, Arrowleaf Sida ([1]; 125 g ai/ha Preemergence): 100 | Plant response rating, Waterhemp ([2]; 16 g ai/ha Postemergence): 85 | Plant response rating, Waterhemp ([2]; 16 g ai/ha Preemergence): 35 | Plant response rating, Waterhemp ([2]; 31 g ai/ha Postemergence): 95 | Plant response rating, Waterhemp ([2]; 31 g ai/ha Preemergence): 100 | Plant response rating, Waterhemp ([2]; 62 g ai/ha Postemergence): 95 | Plant response rating, Waterhemp ([2]; 125 g ai/ha Postemergence): 98 | Plant response rating, Waterhemp ([2]; 125 g ai/ha Preemergence): 100 | Plant response rating, Waterhemp ([2]; Preemergence): 100 | Plant response rating, Field Bindweed ([3]; 16 g ai/ha Postemergence): 60 | Plant response rating, Field Bindweed ([3]; 16 g ai/ha Preemergence): 0 | Plant response rating, Field Bindweed ([3]; 31 g ai/ha Postemergence): 50 | Plant response rating, Field Bindweed ([3]; 31 g ai/ha Preemergence): 50 | Plant response rating, Field Bindweed ([3]; 62 g ai/ha Postemergence): 50 | Plant response rating, Field Bindweed ([3]; 62 g ai/ha Preemergence): 35 | Plant response rating, Field Bindweed ([3]; 125 g ai/ha Postemergence): 75 | Plant response rating, Field Bindweed ([3]; 125 g ai/ha Preemergence): 25 | Plant response rating, Sandbur ([4]; 16 g ai/ha Postemergence): 0 | Plant response rating, Sandbur ([4]; 16 g ai/ha Preemergence): 0 | Plant response rating, Sandbur ([4]; 31 g ai/ha Postemergence): 5 | Plant response rating, Sandbur ([4]; 31 g ai/ha Preemergence): 0 | Plant response rating, Sandbur ([4]; 62 g ai/ha Postemergence): 15 | Plant response rating, Sandbur ([4]; 125 g ai/ha Postemergence): 10 | Plant response rating, Sandbur ([4]; 125 g ai/ha Preemergence): 10 | Plant response rating, Sandbur ([4]; Preemergence): 0 | Plant response rating, Dayflower, VA ([5]; 16 g ai/ha Postemergence): 10 | Plant response rating, Dayflower, VA ([5]; 16 g ai/ha Preemergence): 0 | Plant response rating, Dayflower, VA ([5]; 31 g ai/ha Postemergence): 20 | Plant response rating, Dayflower, VA ([5]; 31 g ai/ha Preemergence): 0 | Plant response rating, Dayflower, VA ([5]; 62 g ai/ha Postemergence): 40 | Plant response rating, Dayflower, VA ([5]; 62 g ai/ha Preemergence): 5 | Plant response rating, Dayflower, VA ([5]; 125 g ai/ha Postemergence): 50 | Plant response rating, Dayflower, VA ([5]; 125 g ai/ha Preemergence): 40 | Plant response rating, Beggarticks ([6]; 16 g ai/ha Postemergence): 5 | Plant response rating, Beggarticks ([6]; 16 g ai/ha Preemergence): 0 | Plant response rating, Beggarticks ([6]; 31 g ai/ha Postemergence): 30 | Plant response rating, Beggarticks ([6]; 31 g ai/ha Preemergence): 0 | Plant response rating, Beggarticks ([6]; 62 g ai/ha Postemergence): 40 | Plant response rating, Beggarticks ([6]; 62 g ai/ha Preemergence): 0 | Plant response rating, Beggarticks ([6]; 125 g ai/ha Postemergence): 50 | Plant response rating, Beggarticks ([6]; 125 g ai/ha Preemergence): 0 | Plant response rating, Velvetleaf ([7]; 16 g ai/ha Preemergence): 10 | Plant response rating, Velvetleaf ([7]; 31 g ai/ha Preemergence): 70 | Plant response rating, Velvetleaf ([7]; 125 g ai/ha Preemergence): 100 | Plant response rating, Velvetleaf ([7]; Preemergence): 85 | Plant response rating, Nutsedge, Yellow ([8]; 16 g ai/ha Preemergence): 0 | Plant response rating, Nutsedge, Yellow ([8]; 31 g ai/ha Preemergence): 0 | Plant response rating, Nutsedge, Yellow ([8]; 125 g ai/ha Preemergence): 15 | Plant response rating, Nutsedge, Yellow ([8]; Preemergence): 0 | Plant response rating, Poinsettia, Wild ([9]; 16 g ai/ha Postemergence): 50 | Plant response rating, Poinsettia, Wild ([9]; 16 g ai/ha Preemergence): 0 | Plant response rating, Poinsettia, Wild ([9]; 31 g ai/ha Postemergence): 40 | Plant response rating, Poinsettia, Wild ([9]; 31 g ai/ha Preemergence): 0 | Plant response rating, Poinsettia, Wild ([9]; 62 g ai/ha Postemergence): 60 | Plant response rating, Poinsettia, Wild ([9]; 125 g ai/ha Postemergence): 70 | Plant response rating, Poinsettia, Wild ([9]; 125 g ai/ha Preemergence): 35 | Plant response rating, Poinsettia, Wild ([9]; Preemergence): 0 | Plant response rating, Soybean (soybean (Glycine max); 16 g ai/ha Postemergence): 50 | Plant response rating, Soybean (soybean (Glycine max); 16 g ai/ha Preemergence): 0 | Plant response rating, Soybean (soybean (Glycine max); 31 g ai/ha Postemergence): 85 | Plant response rating, Soybean (soybean (Glycine max); 31 g ai/ha Preemergence): 0 | Plant response rating, Soybean (soybean (Glycine max); 62 g ai/ha Postemergence): 90 | Plant response rating, Soybean (soybean (Glycine max); 125 g ai/ha Postemergence): 90 | Plant response rating, Soybean (soybean (Glycine max); 125 g ai/ha Preemergence): 30 | Plant response rating, Soybean (soybean (Glycine max); Preemergence): 0 | Plant response rating, Goosegrass ([10]; 16 g ai/ha Preemergence): 0 | Plant response rating, Goosegrass ([10]; 31 g ai/ha Preemergence): 0 | Plant response rating, Goosegrass ([10]; 125 g ai/ha Preemergence): 60 | Plant response rating, Goosegrass ([10]; Preemergence): 40 | Plant response rating, Surinam Grass ([11]; 16 g ai/ha Preemergence): 0 | Plant response rating, Surinam Grass ([11]; 31 g ai/ha Preemergence): 0 | Plant response rating, Surinam Grass ([11]; 125 g ai/ha Preemergence): 15 | Plant response rating, Surinam Grass ([11]; Preemergence): 15 | Plant response rating, Johnsongrass ([12]; 16 g ai/ha Preemergence): 0 | Plant response rating, Johnsongrass ([12]; 31 g ai/ha Preemergence): 0 | Plant response rating, Johnsongrass ([12]; 125 g ai/ha Preemergence): 15 | Plant response rating, Johnsongrass ([12]; Preemergence): 0 | Plant response rating, Barnyardgrass ([13]; 16 g ai/ha Postemergence): 0 | Plant response rating, Barnyardgrass ([13]; 16 g ai/ha Preemergence): 0 | Plant response rating, Barnyardgrass ([13]; 31 g ai/ha Postemergence): 5 | Plant response rating, Barnyardgrass ([13]; 31 g ai/ha Preemergence): 0 | Plant response rating, Barnyardgrass ([13]; 62 g ai/ha Postemergence): 10 | Plant response rating, Barnyardgrass ([13]; 62 g ai/ha Preemergence): 15 | Plant response rating, Barnyardgrass ([13]; 125 g ai/ha Postemergence): 10 | Plant response rating, Barnyardgrass ([13]; 125 g ai/ha Preemergence): 35 | Plant response rating, Foxtail, Giant ([14]; 16 g ai/ha Preemergence): 0 | Plant response rating, Foxtail, Giant ([14]; 31 g ai/ha Preemergence): 20 | Plant response rating, Foxtail, Giant ([14]; 62 g ai/ha Preemergence): 40 | Plant response rating, Foxtail, Giant ([14]; 125 g ai/ha Preemergence): 85 | Plant response rating, Crabgrass, Large ([15]; 16 g ai/ha Preemergence): 0 | Plant response rating, Crabgrass, Large ([15]; 31 g ai/ha Preemergence): 0 | Plant response rating, Crabgrass, Large ([15]; 62 g ai/ha Preemergence): 70 | Plant response rating, Crabgrass, Large ([15]; 125 g ai/ha Preemergence): 85

From patent US10131652B2, “Pyrimidinyloxy benzene derivatives as herbicides” (E. I. DU PONT DE NEMOURS AND COMPANY, priority 2014, dated 2018)
